# Reference: patent publication US20060019938A1, “Estrogen administration for treating male cognitive dysfunction or improving male cognitive function” (priority 2003, published 2006)
# Columns and labels:
# Assay type in all cases: in vivo, human
# [1] = tested on: prostate cancer patients progressing on ADT; experiment: Profile of Mood States (POMS) test, confusion subscale; details: Example 2, prostate cancer patients progressing on ADT
# Text: Research subjects consisted of healthy men, and men who have been diagnosed with prostate cancer that were between the ages of 45-100. The subjects were classified into three groups: (1) Prostate cancer patients progressing on ADT and before and after starting second line therapy with transdermal estradiol as described above; (2) Prostate cancer patients continuing ADT; and (3) Age-matched healthy controls. The treatment regimen of these men was not modified as part of their participation in this study. Exclusion criteria included currently taking hormone replacement, active malignancy other than prostate cancer or non-melanoma skin cancer, major surgery within last 4 weeks, and score less than 25 on the Mini-Mental State Exam (a screening measure for dementia). The participant characteristics are shown below in Table 3.
# The estradiol administration was the same as in example 1.
# Mood was assessed using a Profile of Mood States (POMS) test as described in McNair et al, Profile of mood states manual (Education and Industrial Testing Service, San Diego (1971)). Participants completed the POMS test at both testing sessions (i.e., beginning of study and 4 weeks later). The scale asks participants to rate how they felt in the last week. Responses are categorized into six subscales (tension-anxiety, depression, anger, fatigue, confusion and vigor). […]
# [2] = tested on: men with androgen-independent prostate cancer; experiment: Toxicity monitoring (thromboembolic complications) during transdermal estradiol; details: 0.6 mg estradiol/day transdermal, at time of most recent analysis
# Procedure: (§1) Standard prophylactic breast irradiation was offered to all patients prior to therapy to reduce the risk of gynecomastia. Six Climara® estradiol patches (25.0 cm^2, 7.6 mg estradiol per patch) were adhered to the patients once every 7 days for a period of at least 4 weeks for a dosage of 0.6 mg estradiol/day (in vivo estradiol delivery per patch is 0.1 mg/day).
# (§2) Certain cognitive functions of the patients were evaluated prior to starting estradiol treatment and approximately 4 weeks after starting estradiol treatment. Specifically, memory was assessed using immediate and delayed Paragraph Recall test and working memory was assessed using the SOP and Trails tests. Serum estradiol concentration was also measured after approximately 4 weeks of treatment, as well as other standard monitoring measurements. The Paragraph Recall test was performed as described above. The SOP test was performed as described above and was computer-administered with 8 and 10 card sets. Each card of the set was depicted on a computer screen and the subject selected the drawing for each card by pressing a corresponding number on the keyboard. The Trails test was performed as described above.
# [3] = Serum estradiol concentration during transdermal estradiol treatment
# Procedure: Standard prophylactic breast irradiation was offered to all patients prior to therapy to reduce the risk of gynecomastia. Six […]® estradiol patches (25.0 cm^2, 7.6 mg estradiol per patch) were adhered to the patients once every 7 days for a period of at least 4 weeks for a dosage of 0.6 mg estradiol/day (in vivo estradiol delivery per patch is 0.1 mg/day). Certain cognitive functions of the patients were evaluated prior to starting estradiol treatment and approximately 4 weeks after starting estradiol treatment. Specifically, memory was assessed using immediate and delayed Paragraph Recall test and working memory was assessed using the SOP and Trails tests. Serum estradiol concentration was also measured after approximately 4 weeks of treatment, as well as other standard monitoring measurements. The Paragraph Recall test was performed as described above. The SOP test was performed as described above and was computer-administered with 8 and 10 card sets. Each card of the set was depicted on a computer screen and the subject selected the drawing for each card by pressing a corresponding number on the keyboard. The Trails test was performed as described above. The monitoring was similar as described above in connection with example 1. Certain cognitive functions of the patients were evaluated at the beginning of the study and then approximately 4 weeks later. In the case of patients receiving estradiol treatments, the patients were evaluated prior to the initial estradiol and then approximately 4 weeks after starting estradiol treatment. Verbal memory was assessed using the immediate Paragraph Recall test and working memory was assessed using the Trails tests. Serum estradiol concentration was also measured after approximately 4 weeks of treatment, as well as other standard monitoring measurements.
# [4] = tested on: men with androgen-independent prostate cancer; experiment: Paragraph Recall test (immediate and delayed; long-term/verbal memory)
# Procedure: One illustrative declarative memory test for assessing the medial temporal lobe memory system is known as a Paragraph Recall Task. This task is a subtest of the Weschler Memory Scale—Revised. A subject is read a short story and then immediately asked to recall the story. After an approximate 30 minute retention interval, they are asked to recall the story again. The recall responses are scored for number of story items correctly recalled and there is a standard scoring system. There are two stories for each administration so the total score is the total of both stories combined; one for immediate memory; and one for delayed memory.
# (§3) Estradiol was transdermally administered to nineteen men with androgen-independent prostate cancer following a protocol outlined below.
# as §1, §2
# (§4) The monitoring was similar as described above in connection with example 1. Certain cognitive functions of the patients were evaluated at the beginning of the study and then approximately 4 weeks later. In the case of patients receiving estradiol treatments, the patients were evaluated prior to the initial estradiol and then approximately 4 weeks after starting estradiol treatment. Verbal memory was assessed using the immediate Paragraph Recall test and working memory was assessed using the Trails tests. Serum estradiol concentration was also measured after approximately 4 weeks of treatment, as well as other standard monitoring measurements.
# [5] = tested on: men with androgen-independent prostate cancer; experiment: Subject Ordered Pointing (SOP) working memory test
# Text: An illustrative working memory test is known as Subject Ordered Pointing (SOP). SOP is described, for example, in Janowsky et al., “Sex steroids modify working memory,” J Cogn Neuroscience 12(3):407-14, 2000 and Petrides et al., “Deficits on subject-ordered tasks after frontal- and temporal-lobe lesions in man,” Neuropsychologia 20:249-62, 1982. In general, subjects are presented with stacks of cards (6, 8, 10 or 12 cards/sets). […] The subject is to touch one drawing on each card in any order, but not touch the same drawing on subsequent cards in the set. Subjects err when they touch a drawing that had been touched on a previous card in the set. Therefore, the subject has to remember previous drawings touched while planning a future response. Subjects repeat each 6, 8, 10, and 12 card set three times. The total number of errors across all card sets is the measure of interest. […] Subjects are instructed to do the task at their own pace, and to try to not go too quickly or too slowly.
# as §3, §1
# as §2, with “Each card of the set was depicted on a computer screen and the subject selected the drawing for each card by pressing a corresponding number on the keyboard. The Trails test was performed as described above.” left out
# [6] = tested on: men with androgen-independent prostate cancer; experiment: Trails working memory test
# Text: A further illustrative working memory test is known as the Trails test. This test is a dot-to-dot paper pencil test where the subject connects dots (1-2-3-4 etc.). On a second measure they connect dots but the dots are labeled alternately in letters and numbers so they have to shift their cognitive set and keep in mind where they are in each set: 1 to A to 2 to B to 3 etc. Their score is the number of seconds to complete the dot to dot. Estradiol was transdermally administered to nineteen men with androgen-independent prostate cancer following a protocol outlined below. Standard prophylactic breast irradiation was offered to all patients prior to therapy to reduce the risk of gynecomastia. […] Certain cognitive functions of the patients were evaluated prior to starting estradiol treatment and approximately 4 weeks after starting estradiol treatment. Specifically, memory was assessed using immediate and delayed Paragraph Recall test and working memory was assessed using the SOP and Trails tests. Serum estradiol concentration was also measured after approximately 4 weeks of treatment, as well as other standard monitoring measurements. […] Certain cognitive functions of the patients were evaluated at the beginning of the study and then approximately 4 weeks later. […] Verbal memory was assessed using the immediate Paragraph Recall test and working memory was assessed using the Trails tests. […]
# [7] = Serum testosterone (total and free) before and after transdermal estradiol; details: Visit 2, after about 4 weeks transdermal estradiol, Example 2
# Text: Research subjects consisted of healthy men, and men who have been diagnosed with prostate cancer that were between the ages of 45-100. The subjects were classified into three groups: (1) Prostate cancer patients progressing on ADT and before and after starting second line therapy with transdermal estradiol as described above; (2) Prostate cancer patients continuing ADT; and (3) Age-matched healthy controls. The treatment regimen of these men was not modified as part of their participation in this study. […]
# as §4
# [8] = Example 1, men with AIPC treated with estradiol
# [9] = Example 2, prostate cancer patients progressing on ADT
# [10] = on estradiol vs pre-treatment, about 4 weeks
# [11] = on estrogen, about 4 weeks, 0.6 mg estradiol/day transdermal, men with AIPC
# [12] = on estrogen, about 4 weeks, 0.6 mg/day transdermal, data from 18 subjects
smiles,measurement,setting,value
"C[C@]12CC[C@@H]3c4ccc(O)cc4CC[C@H]3[C@@H]1CC[C@@H]2O [Estradiol, estra-1,3,5(10)-triene-3,17β-diol]","confusion (POMS, FIGS. 3 and 4)",[1],trend for men receiving estradiol to report a decrease in confusion
same,thromboembolic complications or other significant toxicity,[2],no thromboembolic complications or other significant toxicity issues
same,Estradiol (serum),"[3]; Visit 2, after about 4 weeks transdermal estradiol, Example 2",428.8 (280.7) pg/mL
same,concentration at 1 month,"[3]; human, serum, other: transdermal, 0.6 mg/day, 1 month of treatment, Example 1, read-out: Estradiol, mean ± 95% CI",0.46 ± 0.126 ng/mL
same,concentration at 2 months,"[3]; human, serum, other: transdermal, 0.6 mg/day, 2 months of treatment, Example 1, read-out: Estradiol, mean ± 95% CI",0.371 ± 0.115 ng/mL
same,long-term memory,[4]; [8],significant improvement in their long-term memory
same,"verbal memory performance (immediate Paragraph Recall, FIG. 2)",[4]; [9],improved verbal memory performance
same,delayed Paragraph Recall test score improvement,[4]; [10],27%
same,immediate Paragraph Recall test score improvement,[4]; [10],19%
same,Paragraph Recall (delay; # correct),[4]; [11],18.8 # correct
same,Paragraph Recall (immediate; # correct),[4]; [11],22.9 # correct
same,working memory (Subject-Ordered and Trails tests),[5]; [8],no change in working memory
same,"Subject Ordered (# of errors), 8 item",[5]; [12],6.3 # of errors
same,"Subject Ordered (# of errors), 10 item",[5]; [12],7.0 # of errors
same,"working memory (Trails test, FIG. 1)",[6]; [9],did not affect working memory
same,Trails (seconds B-A),"[6]; on estrogen, about 4 weeks, 0.6 mg/day transdermal, data from 15 subjects",69.9 s
same,Free T,[7],3.5 (1.9) pmol/L
same,Total T,[7],9.7 (3.9) ng/dL
